Columns and labels:
[1] = test system: HMG-CoA reductase; conditions: 2.5 μM, 5 hours; Chang et al, J. Biol. Chem. 256:6304 (1981); cited from earlier work
[2] = test system: HMG-CoA reductase; test: HMG-CoA reductase activity in Chinese hamster ovary (CHO-K1) cell culture, as mevalonate formed; format: cell-based; conditions: CHO-K1 cells
Protocol: The effect of 26-hydroxycholesterol on HMG-CoA reductase activity was determined using the procedures of Chang et al, J. Biol. Chem. 256:6304 (1981). Chinese hamster ovary cells, CHO-Kl cells (also referred to as wild type) were obtained from the American Type Culture Collection and grown in Falcon flasks on Ham's F-12 media containing 10% fetal calf serum. Approximately 21/2 days after cells were removed from the stock flask cultures and seeded into petri dishes (60 mm), each containing 0.03×10^6 cells, they were rinsed with phosphate-buffered saline (PBS) and then grown in F-12 media containing 10% delipidated fetal calf serum for 48 hours with one change of media. Following this, either fresh media (still with delipidated calf serum) or fresh media containing 0.14% DMSO alone or 26-hydroxycholesterol was added and the cells incubated for varying periods of time. Our final concentration of DMSO was less than Chang (0.14% vs. 0.3%) and comparison of HMG-CoA reductase activity at 5 hours with media not containing DMSO gives the same or slightly higher (not significant) values. Under these conditions, over 50% inhibition has been obtained using the 0.25 μM concentration of 26-hydroxycholesterol and incubating for 5 hours. Not only is the mean highly significant but none of the individual control flasks overlap with the individual flasks containing 26-hydroxycholesterol. Using a concentration 10 X greater (2.5 μM) of 25-hydroxycholesterol, Chang reported 80% inhibition at 5 hours. Table 1 below sets forth average results of this experiment when carried out on a single day. […] HMG-CoA reductase activity was determined using the double-label technique of Pitot et al, J. Lipid Res. 12:512 (1971) and the thin-layer separation of Shapiro et al, Anal. Biochem. 31:383 (1969). […] The mevalonlactone is separated by thin-layer chromatography and the ^14 C/^3 H ratio determined from which the total amount of ^14 C can be calculated (corrected for ^3 H recovered) and expressed per mg of cytosolic protein by the Lowry method.

## C[C@H](CCCC(C)(C)O)[C@H]1CC[C@H]2[C@@H]3CC=C4C[C@@H](O)CC[C@]4(C)[C@H]3CC[C@]12C [25-hydroxycholesterol]
[1]
  inhibition of HMG-CoA reductase activity reported by Chang: 80%

## C[C@@H](CO)CCC[C@@H](C)[C@H]1CC[C@H]2[C@@H]3CC=C4C[C@@H](O)CC[C@]4(C)[C@H]3CC[C@]12C [26-hydroxycholesterol]
[2]; 0.25 μM in 0.14% DMSO, 5 hours incubation, average of a single day
  % Inhibition of HMG-CoA reductase activity: 65%
[2]; 0.25 μM in 0.14% DMSO, 5 hours incubation, DMSO control 0.048
  HmG Co-A Reductase Activity (as mevalonate formed): 0.017 nMol/min/mg protein
[2]; 0.25 μM, incubating for 5 hours
  inhibition of HMG-CoA reductase activity: over 50%
